# Legend:
# [1] = biological target: T1, human adenosine-A1 receptors (Homo sapiens, UniProt P30542); test: In vitro affinity for human adenosine-A1 receptors (radioligand [3H]DPCPX); format: binding; details: human recombinant receptors expressed in CHO cells; for Ki: read-out: Adenosine receptor affinity (binding) A1 pKi (converted)
# T1 construct: expressed in transfected cells; host or cells: CHO cells
# T1 sequence (P30542 1-326): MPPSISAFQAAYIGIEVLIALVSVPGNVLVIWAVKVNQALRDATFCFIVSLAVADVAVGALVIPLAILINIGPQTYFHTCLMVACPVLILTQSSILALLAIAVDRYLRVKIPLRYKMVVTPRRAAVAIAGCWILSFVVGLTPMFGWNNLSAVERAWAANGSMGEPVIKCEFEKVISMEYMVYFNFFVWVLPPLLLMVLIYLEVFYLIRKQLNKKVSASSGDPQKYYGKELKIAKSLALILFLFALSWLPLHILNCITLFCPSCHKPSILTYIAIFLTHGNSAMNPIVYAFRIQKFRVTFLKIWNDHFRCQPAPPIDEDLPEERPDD
# Protocol: Affinity of the compounds for human adenosine-A1 receptors was determined using the receptor binding assay described by A. Townsend-Nicholson and P. R. Schofield (Biol. Chem., 269, 2373, 1994), using human recombinant receptors expressed in CHO cells, and [^3H]DPCPX as radioligand.
# [2] = biological target: T2, human adenosine-A2A receptors (Homo sapiens, UniProt P29274); test: In vitro affinity for human adenosine-A2A receptors (radioligand [3H]CGS 21680); format: binding; details: human recombinant receptors expressed in HEK-293 cells; for Ki: read-out: Adenosine receptor affinity (binding) A2A pKi (converted)
# T2 construct: expressed in transfected cells; host or cells: HEK-293 cells
# Protocol: Affinity of the compounds for human adenosine-A2A receptors was determined using the receptor binding assay described by D. R. Luthin et al., (Mol. Pharmacol., 47, 307, 1995), using human recombinant receptors expressed in HEK-293 cells, and [^3H]CGS 21680 as radioligand.
# [3] = biological target: T3, human adenosine-A2B receptors (Homo sapiens, UniProt P29275); test: In vitro affinity for human adenosine-A2B receptors (radioligand [3H]MRS 1754); format: binding; details: human recombinant receptors expressed in HEK-293 cells; for Ki: read-out: Adenosine receptor affinity (binding) A2B pKi (converted)
# T3 construct: expressed in transfected cells; host or cells: HEK-293 cells
# T3 sequence (P29275 1-332): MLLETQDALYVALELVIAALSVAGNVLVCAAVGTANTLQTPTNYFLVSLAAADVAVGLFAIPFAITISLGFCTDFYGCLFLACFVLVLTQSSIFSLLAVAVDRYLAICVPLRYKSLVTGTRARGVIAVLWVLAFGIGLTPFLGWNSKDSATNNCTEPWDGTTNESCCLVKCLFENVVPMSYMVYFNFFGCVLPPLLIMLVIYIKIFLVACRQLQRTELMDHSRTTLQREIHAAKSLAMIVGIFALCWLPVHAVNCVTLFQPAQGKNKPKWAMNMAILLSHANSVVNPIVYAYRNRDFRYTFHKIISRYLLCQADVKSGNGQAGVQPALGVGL
# Protocol: Affinity of the compounds for human adenosine-A2B receptors was determined using the receptor binding assay described by J. H. Stehle et al. (Mol. Endocrinol., 6, 384, 1992), using human recombinant receptors expressed in HEK-293 cells, and [^3H]MRS 1754 as radioligand.
# [4] = biological target: T4, human Adenosine A3 receptor (Homo sapiens, UniProt P0DMS8); test: In vitro affinity for human adenosine-A3 receptors (radioligand [125I]-AB-MECA); format: binding; set-up: expressed in transfected cells; host or cells: HEK 293 cells (membrane preparations); details: membranes of HEK 293 cells stably expressing human A3, [125I]-AB-MECA, 22° C., 90 minutes; read-out: Adenosine receptor affinity (binding) A3 pKi (converted)
# T4 sequence (P0DMS8 1-318): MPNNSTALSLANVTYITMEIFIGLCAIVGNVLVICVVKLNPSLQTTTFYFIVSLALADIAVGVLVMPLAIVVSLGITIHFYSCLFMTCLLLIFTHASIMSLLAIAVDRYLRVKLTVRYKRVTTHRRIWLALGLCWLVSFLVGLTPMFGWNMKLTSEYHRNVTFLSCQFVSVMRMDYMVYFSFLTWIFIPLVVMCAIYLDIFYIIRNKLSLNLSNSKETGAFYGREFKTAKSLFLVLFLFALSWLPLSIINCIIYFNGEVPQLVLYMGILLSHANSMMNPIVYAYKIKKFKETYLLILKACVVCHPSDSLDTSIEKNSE
# Protocol: Affinity of the compounds for human adenosine-A3 receptors was determined using the receptor binding assay described by C. A. Salvatore et al.: “Molecular cloning and characterization of the human A3 adenosine receptor”, Proc. Natl. Acad. Sci. USA, 90, 10365-10369, 1993. Briefly, membrane preparations were obtained from human recombinant (HEK 293) cells in which the human adenosine-A3 receptor was stably expressed. […] Separation of bound radioactivity from free was done by filtration through Packard GF/B glass fiber filters with several washings with ice-cold buffer using a Packard cell harvester. Bound radioactivity was measured with a scintillation counter (Topcount, Packard) using a liquid scintillation cocktail (Microscint 0, Packard). […] Determination of In Vitro Functional Activity on Human Adenosine A3 Receptors Using an Aequorin-based Assay
# [5] = biological target: T4, human Adenosine A3 receptor; test: In vitro functional activity on human adenosine A3 receptors using an Aequorin-based assay; format: cell-based; set-up: A. et al. (Acc. Number GenBank: L22607); host or cells: CHO-K1 cells stably expressing mitochondrially targeted aequorin and Galpha16; details: hA3-Aequorin CHO-K1 cells; for EC50: agonist mode, concentrations up to 10^−5 M, read-out: Functional activity A3 agonism pEC50 (converted); for Kb: read-out: Functional activity A3 antagonism pA2 (converted)
# Source text: A stable monoclonal hA3-Aequorin cell line was provided by Euroscreen. The coding region encoding the human Adenosine A3 receptor was amplified by polymerase chain reaction (PCR), using human lung cDNA as template. The PCR product was ligated in the expression vector pEFIN3 (Invitrogen), and the complete sequence of the insert was then established. […] A. et al. (Acc. Number GenBank: L22607). The expression plasmid containing the coding sequence of the human Adenosine A3 receptor was transfected in CHO-K1 cells stably expressing mitochondrially targetted Aequorin and Gα16. Resistant clones were selected in the presence of 400 μg/ml G418 and isolated by limiting dilution. […] The hA3-Aequorin cells express mitochondrially targetted apo-Aequorin. Cells have to be loaded with coelenterazine, in order to reconstitute active Aequorin. After binding of agonists to the hA3 receptor, the intracellular calcium concentration increases, which leads to a luminescent response. Binding of calcium to the apo-Aequorin/coelenterazine complex leads to an oxidation reaction of coelenterazine, which results in the production of apo-Aequorin, coelenteramide, CO2 and light (λmax 469 nm). This luminescent response is dependent on the agonist concentration.
# Assay-protocol: • Dilute the loaded cells 18× in Dulbecco's medium without PhenolRed (Gibco BRL), pre-heated to 37° C., resulting in a concentration of 2.8*10^5 cells/ml. • Stir for 1 hour at room temperature. • Add 10 μl compound or control per well in white 96-well plates. • Add 90 μl of diluted cells (2.5*10^4 cells/well). • Measure chemoluminescence immediately for 20 seconds. • In antagonist mode 50 μl 10^−6 N6-benzyl-NECA is added as the agonist. • Measure chemoluminescence immediately for 20 seconds using the MicroBetaJet (PerkinElmer).
# [6] = antagonist mode, N6-benzyl-NECA as the agonist
# T2 sequence (P29274 whole entry): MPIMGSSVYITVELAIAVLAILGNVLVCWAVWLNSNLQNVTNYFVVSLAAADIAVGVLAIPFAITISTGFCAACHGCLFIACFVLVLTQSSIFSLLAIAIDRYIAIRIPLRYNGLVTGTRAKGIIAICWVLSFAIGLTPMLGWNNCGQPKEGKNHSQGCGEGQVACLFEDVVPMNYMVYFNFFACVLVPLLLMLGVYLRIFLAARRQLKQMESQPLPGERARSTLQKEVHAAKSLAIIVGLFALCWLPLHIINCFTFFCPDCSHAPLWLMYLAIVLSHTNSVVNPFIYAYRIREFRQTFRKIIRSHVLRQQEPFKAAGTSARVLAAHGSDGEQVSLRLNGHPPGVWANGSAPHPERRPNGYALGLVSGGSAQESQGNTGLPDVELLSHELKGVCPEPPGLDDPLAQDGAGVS
Ki [1],Ki [2],Ki [3],Ki [4],EC50 [5],"Kb [5, 6]",melting point,Adenosine receptor affinity (binding) A1 pKi [1],Adenosine receptor affinity (binding) A2A pKi [2],Adenosine receptor affinity (binding) A2B pKi [3],"Functional activity A3 antagonism pA2 [5, 6]",SMILES
3.98 µM,20 µM,> 10 µM,0.02 µM,> 10 µM,0.158 µM,–,–,–,–,–,"FC(F)(F)c1nc(NCc2ccccc2)nc2nc[nH]c12 [Compound 6, 6-trifluoromethyl-2-benzylamino purine]"
> 10 µM,> 10 µM,> 10 µM,3.16 µM,> 10 µM,1.58 µM,–,–,–,–,–,"Cn1cnc2c(C(F)(F)F)nc(NCc3ccccc3)nc21 [Compound 7, 6-trifluoromethyl-9-methyl-2-benzylamino purine]"
7.94 µM,12.6 µM,> 10 µM,0.316 µM,–,0.0398 µM,–,–,–,–,–,"OC[C@H]1O[C@@H](n2cnc3c(C(F)(F)F)nc(NCc4ccccc4)nc32)[C@H](O)[C@@H]1O [Compound 8, 2-benzylamino-6-trifluoromethyl-9-β-D-ribofuranosyl purine]"
1 µM,12.6 µM,> 10 µM,0.0126 µM,> 10 µM,0.002 µM,–,–,–,–,–,"FC(F)(F)c1nc(NCCc2ccccc2)nc2nc[nH]c12 [Compound 9, 6-trifluoromethyl-2-phenethylamino purine]"
6.31 µM,15.8 µM,12.6 µM,1.58 µM,> 10 µM,3.16 µM,–,–,–,–,–,"Cn1cnc2c(C(F)(F)F)nc(NCCc3ccccc3)nc21 [Compound 10, 6-trifluoromethyl-9-methyl-2-phenethylamino purine]"
> 10 µM,> 10 µM,–,1 µM,–,–,131 to 139 °C,–,–,–,–,"Cn1c(Br)nc2c(C(F)(F)F)nc(NCCc3ccccc3)nc21 [Compound 11, 8-bromo-6-trifluoromethyl-9-methyl-2-phenethylamino purine]"
–,–,–,–,–,–,–,<5.0,<5.0,<5.0,9.8,"OC[C@H]1O[C@@H](n2cnc3c(C(F)(F)F)nc(NCCc4ccccc4)nc32)[C@H](O)[C@@H]1O [Compound 26, 2-phenethylamino-6-CF3-9-β-D-ribofuranosyl purine]"
2.51 µM,20 µM,–,0.0794 µM,> 10 µM,7.94 µM,–,–,–,–,–,"CC(C)(C)OC(=O)OCn1cnc2c(C(F)(F)F)nc(NCc3ccccc3)nc21 [Compound 29, 6-trifluoromethyl-2-benzylamino-9-BocOM-purine]"
